{"source": "paper PMC8204385", "about": "(Biophysical Journal, 2021)", "biological_target": "T1, human SHP-1 (Homo sapiens, UniProt P29350)", "T1 construct": "6xHis (N); made in house; host or cells: Escherichia coli BL21-CodonPlus (DE3)-RIPL", "T1 sequence (P29350 whole entry)": "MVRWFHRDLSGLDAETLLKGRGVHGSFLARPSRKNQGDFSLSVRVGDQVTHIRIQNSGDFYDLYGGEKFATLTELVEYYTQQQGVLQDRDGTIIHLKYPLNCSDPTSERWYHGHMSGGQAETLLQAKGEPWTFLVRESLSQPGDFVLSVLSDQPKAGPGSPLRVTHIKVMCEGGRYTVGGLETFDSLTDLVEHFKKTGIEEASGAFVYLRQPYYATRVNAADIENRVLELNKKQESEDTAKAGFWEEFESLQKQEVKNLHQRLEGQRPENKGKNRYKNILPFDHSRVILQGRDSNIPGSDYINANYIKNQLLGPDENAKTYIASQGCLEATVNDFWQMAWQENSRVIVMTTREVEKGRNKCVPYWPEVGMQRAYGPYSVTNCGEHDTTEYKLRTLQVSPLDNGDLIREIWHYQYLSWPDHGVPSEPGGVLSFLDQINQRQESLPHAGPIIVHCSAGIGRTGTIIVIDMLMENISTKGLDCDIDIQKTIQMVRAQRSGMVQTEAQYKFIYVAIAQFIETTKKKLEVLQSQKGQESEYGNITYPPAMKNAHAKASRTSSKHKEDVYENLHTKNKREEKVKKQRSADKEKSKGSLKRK", "experiment": "SPR-based assay for tethered SHP-1 reactions on immobilised phosphopeptides, extended MPDPDE model fit", "format": "binding", "key": {"[1]": {"conditions": "SPR, 37°C, MPDPDE fit, mean ± SE of N experiments"}}, "note": "Where “and” joins values, the source holds several entries; their conditions need not be identical. Equal values may be shown once.", "data": [{"substance": "biotin-QLRRRGKTNHYQTTVEKK SLTIYAQVQKPGPLQKKLD SFPA QDPCTTIYVAATEPVPESVQET NSITVY^∗ASVTLPES [SLAM, N-terminally biotinylated singly phosphorylated peptide of the cytoplasmic tail of SLAM, 77 aa]", "values": [{"measurement": "molecular reach contributed by the peptide tail (LPD-1 or LSLAM)", "setting": "37°C, ((L^2 − LSHP-1^2)/2)^1/2 with LSHP-1 = 13.0 nm", "result": "20.1 nm and 20 nm"}, {"measurement": "kon", "setting": "SPR Biacore T200, 37°C, 10 μL/min, SHP-1 injected 45 s over biotinylated phosphopeptide on streptavidin CM5 chip, HEPES pH 7.4, MPDPDE fit, mean ± SE of N experiments", "result": "20000 ± 10000", "unit": "M⁻¹ s⁻¹"}, {"measurement": "allosteric activation of SHP-1, ratio kcat(tethered)/kcat(solution)", "setting": "SPR, 37°C", "result": 6.2, "unit": "fold"}, {"measurement": "Kd", "setting": "SPR, 37°C, KD = koff/kon, mean ± SE of N experiments", "result": "130 ± 40", "unit": "µM"}, {"measurement": "L, molecular reach of the reaction", "setting": "SPR, 37°C, L = (σ*)^−1/3 from averaged σ*, ± SE", "result": "31.2 ± 1.2", "unit": "nm"}, {"measurement": "kcat(solution)", "setting": "[1]", "result": "5800 ± 1000", "unit": "M⁻¹ s⁻¹"}, {"measurement": "kcat(tethered)", "setting": "[1]", "result": "36000 ± 3000", "unit": "M⁻¹ s⁻¹"}, {"measurement": "koff", "setting": "[1]", "result": "1.7 ± 0.2", "unit": "s⁻¹"}, {"measurement": "σ* (local concentration)", "setting": "[1]", "result": "55 ± 6", "unit": "µM"}]}]}
